From ChEMBL document CHEMBL5576113, “A method for estimation of plasma protein binding using diffusion ordered NMR spectroscopy (DOSY)” (RSC Med Chem, 2024)

What was measured:
Albumin [1] = target: T1, Albumin (Bos taurus, UniProt P02769); assay: Plasma protein binding in bovine serum albumin assessed as fraction bound at 5:1 ratio of compound and BSA by 1H DOSY NMR spectrophotometric analysis; type: ADME; settings: cattle, read-out: PPB (converted)
Albumin [2] = target: T1, Albumin; assay: Plasma protein binding in bovine serum albumin assessed as fraction bound at 20:1 ratio of compound and BSA by 1H DOSY NMR spectrophotometric analysis; type: ADME; settings: cattle, read-out: PPB (converted)
Albumin [3] = target: T1, Albumin; assay: Plasma protein binding in bovine serum albumin assessed as fraction bound at 10:1 ratio of compound and BSA by 1H DOSY NMR spectrophotometric analysis; type: ADME; settings: cattle, read-out: PPB (converted)
Albumin [4] = target: Albumin (Homo sapiens, UniProt P02768); assay: Plasma protein binding in human albumin at 1 to 20 ug/ml incubated for 30 mins; type: ADME; settings: at 1 to 20 µg/mL, dose 1-20 µg/ml, read-out: PPB (converted)
Sequence of Albumin (Homo sapiens, UniProt P02768) (P02768 whole entry): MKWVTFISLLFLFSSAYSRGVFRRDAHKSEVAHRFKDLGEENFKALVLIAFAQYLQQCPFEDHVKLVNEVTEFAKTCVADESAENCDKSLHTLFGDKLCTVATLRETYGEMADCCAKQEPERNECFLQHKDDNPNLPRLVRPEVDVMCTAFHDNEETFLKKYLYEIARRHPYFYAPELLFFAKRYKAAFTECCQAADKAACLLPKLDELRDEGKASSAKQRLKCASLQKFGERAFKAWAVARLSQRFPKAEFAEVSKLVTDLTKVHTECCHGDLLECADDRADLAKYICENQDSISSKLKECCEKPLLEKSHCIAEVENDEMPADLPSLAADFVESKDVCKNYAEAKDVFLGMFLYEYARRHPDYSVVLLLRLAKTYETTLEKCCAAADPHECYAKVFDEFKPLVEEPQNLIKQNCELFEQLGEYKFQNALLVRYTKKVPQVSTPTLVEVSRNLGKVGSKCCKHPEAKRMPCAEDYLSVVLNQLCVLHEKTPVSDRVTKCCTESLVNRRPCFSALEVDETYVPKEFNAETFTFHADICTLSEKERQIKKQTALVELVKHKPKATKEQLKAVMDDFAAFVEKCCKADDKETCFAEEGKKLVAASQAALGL

[5] = Plasma protein binding in human plasma incubated for 18 hrs by equilibrium dialysis

T1 sequence (P02769 whole entry): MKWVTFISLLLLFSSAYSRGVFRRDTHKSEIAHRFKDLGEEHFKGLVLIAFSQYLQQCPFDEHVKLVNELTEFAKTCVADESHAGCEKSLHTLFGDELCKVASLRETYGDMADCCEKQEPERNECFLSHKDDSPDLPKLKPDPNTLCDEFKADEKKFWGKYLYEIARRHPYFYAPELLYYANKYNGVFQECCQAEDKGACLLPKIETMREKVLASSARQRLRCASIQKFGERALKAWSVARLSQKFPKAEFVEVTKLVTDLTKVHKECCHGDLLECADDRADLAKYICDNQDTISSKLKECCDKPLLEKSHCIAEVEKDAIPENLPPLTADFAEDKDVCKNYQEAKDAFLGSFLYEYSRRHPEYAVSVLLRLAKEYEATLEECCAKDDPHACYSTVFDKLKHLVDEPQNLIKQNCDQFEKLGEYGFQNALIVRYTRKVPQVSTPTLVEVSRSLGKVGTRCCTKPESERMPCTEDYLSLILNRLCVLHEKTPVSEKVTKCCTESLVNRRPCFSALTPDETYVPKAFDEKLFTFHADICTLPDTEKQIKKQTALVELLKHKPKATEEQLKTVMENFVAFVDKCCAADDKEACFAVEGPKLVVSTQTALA

For `OC[C@H]1OC(O)[C@H](O)[C@@H]1O` (some centres not stated), the fraction unbound (Albumin [1]) was 0.11, the fraction unbound (Albumin [2]) was 0.36 and the fraction unbound (Albumin [3]) was 0.25.

Compound `CC(=O)Oc1ccccc1C(=O)O` [ASPIRIN] has a fraction unbound (Albumin [1]) of 0.1, a fraction unbound (Albumin [2]) of 0.48 and a fraction unbound (Albumin [3]) of 0.16.

`Cn1c(=O)c2c(ncn2C)n(C)c1=O` [CAFFEINE] gave a fraction unbound (Albumin [1]) of 0.27, a fraction unbound at 0.5 h (Albumin [4]) of 0.625 and a fraction unbound (Albumin [2]) of 0.71. The fraction unbound (Albumin [3]) was 0.67.

`CN/C(=N/CCSCc1nc[nH]c1C)NC#N` [CIMETIDINE] gave a fraction unbound (Albumin [1]) of 0.42, a fraction unbound (Albumin [2]) of 0.74 and a fraction unbound (Albumin [3]) of 0.66.

Work on `COc1ccc2nc([S@@+]([O-])Cc3ncc(C)c(OC)c3C)[nH]c2c1` [ESOMEPRAZOLE] yielded a fraction unbound (Albumin [2]) of 0.04 and a fraction unbound (Albumin [3]) of 0.02.

`N[C@H]1C(O)O[C@H](CO)[C@@H](O)[C@@H]1O` (some centres not stated) [GLUCOSAMINE] gave a fraction unbound (Albumin [1]) of 0.26, a fraction unbound (Albumin [2]) of 0.71 and a fraction unbound (Albumin [3]) of 0.46.

In the case of `CC(C)NCC(O)COc1cccc2ccccc12` (configuration not stated) [PROPRANOLOL], the fraction unbound (Albumin [1]) is reported as 0.21, the fraction unbound (Albumin [2]) is reported as 0.49 and the fraction unbound (Albumin [3]) is reported as 0.41. The fraction unbound at 18 h [5] was 0.14.
